Test results: patent US20150313913A1, “POSITIVE ALLOSTERIC MODULATORS OF THE GABA-A RECEPTOR IN THE TREATMENT OF AUTISM” (UNIVERSITY OF WASHINGTON THROUGH ITS CENTER FOR …, priority 2013, published 2015)
“Also recorded” adds a separate entry of the source.

Columns and labels:
[1] = system: mouse genetic models of human Dravet syndrome and idiopathic autism; assay: Summary: low-dose treatment of mouse models of autism; assay type: in vivo, mice; conditions: low doses that do not induce sedative or anxiolytic effects
Source text: The present disclosure describes methods effective in the rescue or amelioration of autism-like behavior, cognitive deficit, and context-dependent spatial memory.
In particular embodiments, these methods comprise the administration of low doses of a benzodiazepine to a human or other mammalian subject in order to rescue autism-like behavior, cognitive deficit, and context-dependent spatial memory. […] At such low doses, the administration of benzodiazepines, such as CLZ, to mammalian subjects will result in improvement of autism-like behavior, cognitive deficit, and context-dependent spatial learning and memory with much lower levels of sedation compared to mammalian subjects who receive typical higher doses of CLZ or other benzodiazepines that are used for treatment of anxiety, insomnia, or seizure.
The present disclosure is also directed to methods of rescuing or ameliorating indicia of Autism Spectrum disorders, autism-like behavior, cognitive deficit, and context-dependent spatial learning and memory in Dravet syndrome or idiopathic autism with α-2,3-specific GABA-A receptor positive allosteric modifiers. Such α-2,3-subunit selective GABA-A receptor positive allosteric modifiers include L838,417.
Therapeutic approaches to treat autistic traits in animal studies or in clinical trials have primarily focused on reducing excitatory neurotransmission in glutamatergic synapses to rebalance E/I ratio in autistic brain (Michalon et al., 2012; Yang et al., 2012). However, autistic-like behaviors in ASD mouse models are only partially reversed by drugs that inhibit excitatory neurotransmission, and these drugs also have unwanted side effects on wild-type mice (Henderson et al., 2012; Michalon et al., 2012; Yang et al., 2012). To overcome these drawbacks, the inventors focused on the opposing side, the GABAergic inhibitory transmission in autistic brain. Their results highlight the potential for therapy of autistic-like behaviors and cognitive deficit in ASD by low-dose treatment with subunit-selective benzodiazepines and other positive allosteric modulators of GABA-A receptors. […] It is possible that the biphasic dose-response relationship of the positive allosteric modulators reflects their actions on receptors containing α2,3 subunits at low doses and on receptors containing α1 subunits at higher doses.

[2] = system: BTBR mice; assay: Three-chamber social interaction test; conditions: for social interaction (time with stranger mouse, close interaction), dose series: single i.p. injection 30 min before test, low/increasing doses
Experimental: In the three-chamber test, a test mouse is placed in the center chamber, and the preference of the test mouse for interaction with an inanimate object (a small empty cage) in the left chamber vs. a stranger mouse in an identical cage in the right chamber using a digital camera and quantitative video-tracking analysis.
(§1) The test was performed as described previously (Han et al., 2012) with minor modifications. The threechamber apparatus is a non-transparent Plexiglas box (30×60 cm) with two transparent partitions that make left, center, and right chambers (30×20 cm). In the first 10-min session, a test mouse was placed in the center of the empty three-chamber unit to habituate the test mouse. The mouse was allowed to freely explore each chamber. In the second 10-min session, an age- and gender-matched same strain mouse that had never been exposed to the test mouse, was placed in one of the two wire cages. The empty wire cage as an inanimate object cue was placed on the other side. Then, the test mouse was placed again in the center, and allowed to freely explore the chamber for 10 min. Time spent in each chamber, and time spent within a 5 cm radius proximal to each wire cage, as a close interaction were measured by the videotracking software (EthoVision XT 8.5, Noldus Technology). All data shown are means±s.e.m. and analyzed using two-way ANOVA with Bonferroni's post hoc analysis and one-way ANOVA with Tukey's post hoc analysis.
(§2) L-838,417, and DMCM (Sigma), dissolved in 100% DMSO (sterile, Sigma) was diluted in PBS (the final concentration of DMSO was ranged from 0.005% to 0.1%). Drugs were administered by an intraperitoneal injection in a volume of […] 30 min before the behavioral tests.

[3] = system: C57BL/6J mice; assay: Three-chamber social interaction test; assay type: in vivo
Source text: The mouse was allowed to freely explore each chamber.

[4] = system: BTBR mice; assay: Open field test; assay type: in vivo; conditions: clobazam 0.05 mg/kg
Experimental: (§3) Open field test was performed as previously described (Han et al., 2012). 50×50 cm square open field arena with non-transparent white Plexiglas was used in this study. During the 10 min of trial, total distance moved, circling behavior (a complete 360-degree turn of nose angle with respect to the body center) and time in center (20×20 cm imaginary square) were measured by the video-tracking software (EthoVision XT 8.5, Noldus Technology).

[5] = system: GABA-A receptor; conditions: Table 1, exemplary benzodiazepines; cited from earlier work
[6] = Table 1, values marked *; cited from earlier work
[7] = system: C57BL/6J mice; assay: Open field test; assay type: in vivo; conditions: 0.2 mg/kg
Experimental: as §3

[8] = system: C57BL/6J mice; assay: Elevated plus maze test; assay type: in vivo; conditions: 0.2 mg/kg
Experimental: The test was performed as previously described (Han et al., 2012). The maze used in this study has two closed arms (5.1×30 cm) surrounded by 20-cm high non-transparent walls and two open arms (5.1×30 cm). During the 10 min of trial, times spent in closed, center, and open arms, and total distance traveled during the trial were measured by the video-tracking software (EthoVision XT 8.5, Noldus Technology).

[9] = in vivo; cited from earlier work
[10] = system: Scn1a+/− mice; assay: Three-chamber social preference test; assay type: in vivo; conditions: low doses, narrow dose range (FIGS. 41N, 41O)
Source text: The mouse was allowed to freely explore each chamber. […] The recorded video file was further analyzed by off-line video tracking software (ETHOVISION™ XT 7.0). […] All data shown are means±s.e.m. and analyzed using two-way ANOVA with Bonferroni's post hoc analysis and one-way ANOVA with Tukey's post hoc analysis.
Oral administration is specifically contemplated for the methods described herein, and is well known for both benzodiazepines and non-BDZ GABA-A enhancers as described herein.
as §1, §2

[11] = system: BTBR mice; assay: Context-dependent fear conditioning test; assay type: in vivo; conditions: 0.05 mg/kg
Source text: The contextual fear-conditioning chamber was a square arena (25×25 cm) with clear PLEXIGLAS™ walls and a metal grid floor connected to a circuit board that delivered shocks to the metal grid (COULBOURN INSTRUMENTS™). An analog camera was attached on top of the chamber. The camera and the circuit board were connected to a personal computer, and its software (FREEZE FRAME™ 2.0, ACTIMETRICS™) controlled the circuit and recorded the data. The chamber was cleaned with 70% ethanol and wiped with paper towels before each session. In the habituation session, a test mouse was placed in the chamber and allowed to explore for 2 min^66-69. Immediately after habituation, the test mouse received a single mild foot shock (2 s, 0.5 mA). After staying in the chamber one more min, the mouse was removed from the chamber. For the 30-min short-term memory test, the mouse was returned to the context 30 min after the end of the training session. For 24-hr long-term memory test, the mouse was returned to the context 24 hr after the training session. The movement of mice was also recorded by a USB webcam (LIFECAM™ HD-6000, MICROSOFT™) and PC-based video capture software (WINAVI™ Video Capture, ZJ MEDIA DIGITAL TECHNOLOGY™) for 2 min. The recorded video file was further analyzed by off-line video tracking software (ETHOVISION™ XT 7.0, NOLDUS TECHNOLOGY™). The freezing scores were calculated by dividing the test session into 1 min bouts and averaging together all 2 min for each animal. All data shown.
Freezing behavior is defined as the period during which the velocity of the test mouse is less than 1.75 cm/s, and non-freezing behavior is defined as the period during which the velocity of the mouse is greater than 2 cm/s.

SMILES: CN1C(=O)CC(=O)N(c2ccccc2)c2cc(Cl)ccc21 [Clobazam]
- autistic-like behaviors and cognitive deficit in BTBR mice (summary) [1]: improved
- social interaction deficit ([2]; 0.05 mg/kg (low dose) 30 min before test): ameliorated social interaction deficits
- time in the chamber with the stranger mouse ([2]; FIG. 9): increased
- time of interaction with the stranger mouse ([2]; FIG. 9): increased
- social interaction (time with stranger mouse, close interaction), dose series [2]: increases
- social interaction of control mice ([3]; clobazam, FIG. 9): no effect
- anxiolytic effect (time spent in center) [4]: without sedative (FIG. 41C) or anxiolytic effects
- sedative effect (total distance moved) [4]: without sedative
- Effect at GABA-A receptor [5]: Agonist
- Dose in humans for anti-anxiety, anti-convulsive, or sedative effects: equivalent dose to 10 mg diazepam [6]: 20 mg

SMILES: CCc1c(C(=O)OC)ncc2[nH]c3cc(OC)c(OC)cc3c12 [DMCM]
- normal social interaction behavior ([3]; 0.2 mg/kg single injection 30 min prior): impaired; also recorded: substantially reduced
- general locomotor behavior (distance moved) [7]: not altered
- time spent in center [7]: unaltered
- anxiety levels (time in the open arms) [8]: not altered
- number of entries in the open arms [8]: unchanged

SMILES: Cc1nnc2n1-c1ccc(Cl)cc1C(c1ccccc1Cl)=NC2 [Triazolam]
- Effect at GABA-A receptor [5]: Agonist
- Dose in humans for anti-anxiety, anti-convulsive, or sedative effects: equivalent dose to 10 mg diazepam [6]: 0.25 mg
- half-life [9]: 2 to 3 h

SMILES: Cc1ccc(-c2nc3ccc(C)cn3c2CC(=O)N(C)C)cc1 [zolpidem]
- autistic-like behaviors and cognitive deficit in BTBR mice (summary) [1]: opposite effects
- social interactions in three-chamber test [10]: not effective
- social behavior (close interaction) ([2]; 0.5 mg/kg): made social behavior worse
- sedation / total distance moved during the three-chamber test ([2]; dose range up to 0.5 mg/kg (clonazepam: test doses)): dose-dependently decreased
- total movement during the three-chamber test at high dose ([2]; high doses, zolpidem 0.5 mg/kg): significantly decreased
- effect on social interaction at doses above the maximally effective dose ([2]; higher doses): aggravated their social interaction deficit at high doses
- social interaction (time with stranger mouse, close interaction), dose series [2]: failed to show beneficial effects
- social interaction (time with stranger mouse, close interaction), dose series ([2]; listed as Zolpidem): failed to rescue social deficit
- social behavior, dose series ([3]; L-838,417 / zolpidem (FIGS. 45I, 45J)): dose-dependently impaired
- social behavior at high dose ([3]; high dose): impaired
- long-term (24 h) memory [11]: not long-term memory
- short-term (30 min) memory [11]: enhanced short-term memory
